Results reported in PubChem BioAssay (NCI).
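Results reflect a 48-hour exposure of cells in 96-well plates to compound at five concentrations. The concentration for 50% growth inhibition is given as GI50. At the TGI there is no net growth.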

Tests used:
Assay in all cases: growth of human tumour cells (NCI), 48 h
SW-620 colon = tested on: SW-620 colon
U251 CNS = tested on: U251 CNS
MOLT-4 leukemia = tested on: MOLT-4 leukemia
BT-549 breast = tested on: BT-549 breast
NCI-H23 lung = tested on: NCI-H23 lung
HL-60(TB) leukemia = tested on: HL-60(TB) leukemia
HS 578T breast = tested on: HS 578T breast
MDA-MB-435 = tested on: MDA-MB-435
MCF7 breast = tested on: MCF7 breast

Structure (SMILES) | TGI (SW-620 colon) [µM] | TGI (U251 CNS) [µM] | TGI (MOLT-4 leukemia) [µM] | TGI (BT-549 breast) [µM] | TGI (NCI-H23 lung) [µM] | TGI (HL-60(TB) leukemia) [µM] | TGI (HS 578T breast) [µM] | TGI (MDA-MB-435) [µM] | TGI (MCF7 breast) [µM] | GI50 (SW-620 colon) [µM] | GI50 (U251 CNS) [µM] | GI50 (MOLT-4 leukemia) [µM] | GI50 (BT-549 breast) [µM] | GI50 (NCI-H23 lung) [µM] | GI50 (HL-60(TB) leukemia) [µM] | GI50 (HS 578T breast) [µM] | GI50 (MDA-MB-435) [µM] | GI50 (MCF7 breast) [µM]
CCCCOC(=O)C1CC[C@H]2[C@@H]3CCc4cc(OC(=O)c5cccc6c(=O)c7ccccc7[nH]c56)ccc4[C@H]3CC[C@]12C (stereo partly drawn) | 30.5 | 18.7 | 21.7 | 15 | 16.6 | 13.6 | 39.7 | 18 | 25.8 |  |  |  |  |  |  |  |  | 
Cc1ccc(C2(c3ccc(F)cc3)OC(=O)c3ccccc32)c(O)c1 (stereo not drawn) | 30.6 | 46.2 | 76.3 | 44.6 | 44.9 | 41.9 | 77.4 | 31.6 | 37.5 |  |  |  |  |  |  |  |  | 
CC(Oc1ccccc1)C(=O)NNC(=O)OC(C)(C)C (stereo not drawn) | > 100 | > 100 | > 100 | > 100 | > 100 | > 100 | > 100 | > 100 | > 100 |  |  |  |  |  |  |  |  | 
O=C1/C(=C/c2ccc(O)cc2)COc2ccc(O)c(O)c21 | 5.36 | 13.9 | > 100 | 7.69 | 34.7 | 7.41 | > 100 | 4.91 | > 100 | 2.11 | 2.62 | 1.99 | 1.97 | 3.97 | 1.93 | 3.12 | 2.03 | 2.18
O=C(Cn1c(C(=O)c2ccccc2)nc2ccccc21)c1ccccc1 | > 100 | > 100 | > 100 | > 100 | > 100 | > 100 | > 100 | > 100 | > 100 |  |  |  |  |  |  |  |  | 
Brc1cccc(C2ON=C(c3ccccc3)N2C23CC4CC(CC(C4)C2)C3)c1 (stereo not drawn) | > 10 | > 10 | > 10 | > 10 | > 10 |  | > 10 | > 10 | > 10 |  |  |  |  |  |  |  |  | 
CCCCCCCCCCCCCCCCNc1ccn(C2CC(O)C(COC(c3ccccc3)(c3ccccc3)c3ccc(OC)cc3)O2)c(=O)n1 (stereo not drawn) | > 100 | > 100 | > 100 | > 100 | > 100 | > 100 | > 100 | > 100 | > 100 |  |  |  |  |  |  |  |  | 
CNc1ncnc2c1nc(NC1CCCC1)n2C1OC(CO)C(O)C1O (stereo not drawn) | > 100 | > 100 | > 100 |  | > 100 |  |  | > 100 | > 100 |  |  |  |  |  |  |  |  | 
O=C1C(c2c(O)[nH]c3ccc(Br)cc23)=Nc2ccc(Br)cc21 | > 100 | 35 | > 100 | > 100 | 88 | > 100 | > 100 | > 100 | 43.1 |  |  |  |  |  |  |  |  | 
Cc1nc2sc(C(=O)c3ccc(Cl)cc3)c(N)c2c(-c2ccccc2Cl)c1C(=O)Nc1ccccc1 | 29.4 | 37.4 | 51.5 | 48 | 38.9 | > 86.5 | 48.7 | 33.1 | 53.8 |  |  |  |  |  |  |  |  | 
COc1cc(OC)c2c(c1)OC(c1cccnc1)C(c1ccccc1)C2=O (stereo not drawn) | > 100 | > 100 | > 100 | > 100 | > 100 | > 100 | > 100 | > 100 | > 100 |  |  |  |  |  |  |  |  | 
Cc1c2c(n(CC(c3ccccc3)c3ccccc3)c1C)NN=C(C#N)S2(=O)=O | > 100 | > 100 | > 100 | > 100 | > 100 |  | > 100 | > 100 | > 100 |  |  |  |  |  |  |  |  | 
C/C(=N\Nc1nc2ccccc2s1)c1cc2ccccc2cn1 | > 100 | > 100 |  | 45.8 | 18.1 |  |  | 72.8 | > 100 |  |  |  |  |  |  |  |  | 
[N-]=[N+]=CC(=O)OCCCCl | > 100 | > 100 | > 100 | > 100 | > 100 | > 100 |  | > 100 | > 100 |  |  |  |  |  |  |  |  | 
c1ccc2c(c1)cc1n2CCc2c-1[nH]c1ccccc21 | > 10 | > 10 | > 10 | > 10 | > 10 | > 10 | > 10 | > 10 | > 10 |  |  |  |  |  |  |  |  | 
CC1(C)OC2OC(C(COS(=O)(=O)C(F)(F)F)N=[N+]=[N-])C(OC(=O)c3ccccc3)C2O1 (stereo not drawn) | > 100 | > 100 | > 100 | > 100 | > 100 | > 100 | > 100 | > 100 | > 100 |  |  |  |  |  |  |  |  | 
C(#CP(c1ccccc1)c1ccccc1)P(C#CP(c1ccccc1)c1ccccc1)c1ccccc1 | > 100 | > 100 | > 100 | > 100 |  | > 100 | > 100 | > 100 | > 100 |  |  |  |  |  |  |  |  | 
CCCCCCCCCCCCCC[n+]1ccc(C)cc1 | 3.88 | 1.65 | 2.65 |  | 2.51 | 1.19 | 8.8 | 2.16 |  | 0.945 | 0.437 | 0.689 |  | 0.504 | 0.338 | 2.39 | 0.638 | 
COc1nc2ccc(COc3ccc(C(=O)O)cc3)cc2nc1OC | > 100 | > 100 | > 100 |  | > 100 | > 100 |  | > 100 | > 100 |  |  |  |  |  |  |  |  | 
COc1cc2c(cc1OC)C(=O)/C(=C/c1cc(C)cc(C)c1)C2 | > 90.7 | > 81.8 | > 90.3 | 60.4 | > 68 |  | > 100 |  | > 31.9 |  |  |  |  |  |  |  |  | 
COC(=O)C1OC(O[C@H]2CC[C@]3(C)[C@H]4CC=C5[C@@H]6CC(C)(C)CC[C@]6(C(=O)OC6OCC(O)C(O)C6OC6OC(C)C(OC7OCC(O)C(O)C7O)C(OC7OCC(O)(CO)C7O)C6O)[C@H](O)C[C@@]5(C)[C@]4(C)CC[C@H]3C2(C)C)C(O)C(O)C1O (stereo partly drawn) | 19.2 | 19.3 | > 100 | 6.55 | 3.56 |  | 28.2 | 3.7 | 3.43 |  |  |  |  |  |  |  |  | 
